Key:
[1] = tested on: harmful plants such as Stellaria media, Lolium multiflorum, Amaranthus retroflexus, Sinapis alba, Avena sativa and Setaria viridis; assay: Pre-emergence herbicidal action (greenhouse pot test); type: in vivo, mono- and dicotyledonous weed plants; settings: application rate of 500 g or less of active substance per hectare; scored visually after 3 to 4 weeks in comparison to untreated controls
Excerpt: Seeds or rhizome pieces of mono- and dicotyledonous weed plants were placed in sandy loam in plastic pots and covered with soil. The inventive compounds, which have been formulated in the form of wettable powders or emulsion concentrates, were then applied to the surface of the covering soil as an aqueous suspension or emulsion in different dosages with an application rate of from 600 to 800 l/ha of water (converted). After the treatment, the pots were placed in a greenhouse and kept under good growth conditions for the weeds. The plant or emergence damage is scored visually after the emergence of the test plants after an experiment time of from 3 to 4 weeks in comparison to untreated controls. […] For example, the examples no.

[2] = tested on: harmful plants such as Sinapis alba, Echinochloa crus-galli, Lolium multiflorum, Stellaria media, Cyperus iria, Amaranthus retroflexus, Setaria viridis, Avena …; assay: Post-emergence herbicidal action (greenhouse pot test); type: in vivo, mono- and dicotyledonous weeds; settings: application rate of 500 g and less of active substance per hectare; treated at three-leaf stage; scored visually after approx. 3 to 4 weeks
Method: Seeds or rhizome pieces of mono- and dicotyledonous weeds were placed in sandy loam in plastic pots, covered with soil and grown in a greenhouse under good growth conditions. Three weeks after the sowing, the test plants were treated at the three-leaf stage. The inventive compounds formulated as spray powders or as emulsion concentrates were sprayed onto the green plant parts in various dosages with an application rate of from 600 to 800 l/ha of water (converted). After the test plants had been left to stand in the greenhouse under optimal growth conditions for approx. 3 to 4 weeks, the action of the preparations was scored visually in comparison to untreated controls. The inventive compositions also had good post-emergence herbicidal activity against a wide spectrum of economically important gramineous and broadleaf weeds. For example, examples no.

## CC(F)c1nc(N)nc(NC(C(C)C)C2CC2)n1 (stereo not shown) [Example 1-317]
[1]
  herbicidal action, pre-emergence method: very good herbicidal action
[2]
  herbicidal action, post-emergence method: very good herbicidal action

## Nc1ncnc(NC(C2CC2)C2CC2)n1 [Example 1-19]
[1]
  herbicidal action, pre-emergence method: very good herbicidal action
[2]
  herbicidal action, post-emergence method: very good herbicidal action

## CCC(F)c1nc(N)nc(NC(C2CCC2)C2CCC2)n1 (stereo not shown) [Example 1-420]
[1]
  herbicidal action, pre-emergence method: very good herbicidal action
[2]
  herbicidal action, post-emergence method: very good herbicidal action

## CC(C)(F)c1nc(N=CN2CCOCC2)nc(NC(C2CC2)C2CC2)n1 [Example 6-199]
[1]
  herbicidal action, pre-emergence method: very good herbicidal action
[2]
  herbicidal action, post-emergence method: very good herbicidal action

## CCC(F)c1nc(N)nc(NC(C2CC2)C2CC2)n1 (stereo not shown) [Example 1-414]
[2]
  herbicidal action, post-emergence method: very good herbicidal action

## Nc1nc(NC(C2CC2)C2CC2)nc(C2(F)CC2)n1 [Example 1-572]
[1]
  herbicidal action, pre-emergence method: very good herbicidal action
[2]
  herbicidal action, post-emergence method: very good herbicidal action

## CC(C)C(Nc1nc(N)nc(C(C)(C)F)n1)C1CC1 (stereo not shown) [Example 1-475]
[1]
  herbicidal action, pre-emergence method: very good herbicidal action
[2]
  herbicidal action, post-emergence method: very good herbicidal action

## CC(F)c1nc(N)nc(NC(C2CC2)C2CC2)n1 (stereo not shown) [Example 1-335]
[1]
  herbicidal action, pre-emergence method: very good herbicidal action
[2]
  herbicidal action, post-emergence method: very good herbicidal action

## Nc1nc(NC(C2CC2)C2CC2)nc(C2CC2)n1 [Example 1-256]
[2]
  herbicidal action, post-emergence method: very good herbicidal action

## Cc1nc(N)nc(NC(C2CC2)C2CC2)n1 [Example 1-98]
[1]
  herbicidal action, pre-emergence method: very good herbicidal action

## CC(C)(F)c1nc(N)nc(NC2CCC3CC32)n1 (stereo not shown) [Example 7-79]
[1]
  herbicidal action, pre-emergence method: very good herbicidal action
[2]
  herbicidal action, post-emergence method: very good herbicidal action

## CC(C)(F)c1nc(N)nc(NC(C2CC2)C2CC2)n1 [Example 1-493]
[1]
  herbicidal action, pre-emergence method: very good herbicidal action
[2]
  herbicidal action, post-emergence method: very good herbicidal action

## CC(C)(F)c1nc(N)nc(NC(C2CCC2)C2CCC2)n1 [Example 1-499]
[1]
  herbicidal action, pre-emergence method: very good herbicidal action

## CC(=O)Nc1nc(NC(C2CC2)C2CC2)nc(C(C)(C)F)n1 [Example 2-199]
[1]
  herbicidal action, pre-emergence method: very good herbicidal action
[2]
  herbicidal action, post-emergence method: very good herbicidal action

## CN(C)C=Nc1nc(NC(C2CC2)C2CC2)nc(C(C)(C)F)n1 [Example 5-201]
[1]
  herbicidal action, pre-emergence method: very good herbicidal action
[2]
  herbicidal action, post-emergence method: very good herbicidal action

## Nc1nc(NC(C2CC2)C2CC2)nc(C(F)F)n1 [Example 1-651]
[1]
  herbicidal action, pre-emergence method: very good herbicidal action
[2]
  herbicidal action, post-emergence method: very good herbicidal action
